Data taken from patent US20170057955A1, “Pyridopyrimidinone Compounds for Modulating the Catalytic Activity of Histone Lysine Demethylases (KDMs)” (Dong-A Socio Holdings Co., Ltd., priority 2015, published 2017).

Molecular target: T1, Recombinant human JARID1B/KDM5B (Homo sapiens, UniProt Q9UGL1)
T1 construct: purchased Active Motif 31432; host or cells: Sf9 insect cells
Assay: LANCE Ultra TR-FRET JARID1B (KDM5B) demethylase inhibition assay
Type: biochemical
Conditions: 0.1 uM of test-compounds, FLAG-JARID1B, 500 nM biotinylated H3K4me3 peptide substrate, 30 min at room temperature
Description: FLAG-tagged JARID1B (also known as KDM5B) protein was screened against 49 compounds. For this compound screening, LANCE Ultra time-resolved fluorescence resonance energy transfer (TR-FRET) assay was employed using a europoium (Eu)-labeled antibody that can specifically recognize mono- or dimethylated peptides (H3K4me2/1) and ULight-streptavidin (ULight-SA), a small molecule fluorescent dye. When irradiated at 340 nm, the energy from the Eu donor is transferred to the ULight acceptor dye which, in turn, emits light primarily at 665 nm. The ratio between the intensity of primary emission at 665 nm and that of secondary emission at […] was used to quantify the level of lysine methylation. As JARID1B removes more methyl moieties from tri-methylated substrate peptides (H3K4me3), the ratio increases until the enzyme reaction is terminated. In case, therefore, the compounds disrupt the enzymatic activity completely, the ratio becomes equal to a background value.
Recombinant human JARID1B/KDM5B (accession number NP_006609) of molecular weight 179.9 KDa was expressed in Sf9 insect cells and contains an N-terminal FLAG tag. The enzyme was obtained from Active Motif (Catalog No. 31432). The tri-methylated histone substrate peptide of purity greater than 95% was a synthetic peptide in which the first 21 amino acids correspond to the human histone H3 sequence with three extra amino acids and a biotin motif (GGK-biotin) linked to the C-terminus [sequence: ART-K(Me3)-QTARKSTGGKAPRKQLA-GGK-biotin-OH], (AnaSpec, Fremont, Calif. Catalog. No. ANA-1413). The reference inhibitor compound tranylcypromine (or trans-2-phenylcyclopropylamine hydrochloride, also known as, 2-PCPA) was purchased from Sigma (St. Louis, Mo. Cat. no. P8511). ULight-labeled streptavidin (ULight-SA, Catalog no. TRF0102), Eu-W1024-labeled anti-methyl-Histone H3 Lysine 4 (H3K4me1-2) Antibody (Catalog no. TRF0402), and LANCE detection buffer 10× (Catalog no. CR97-100) were obtained from PerkinElmer (Montreal, Quebec, Canada). The TR-FRET experiments were carried out in white, low-volume 384-wellplates purchased from PerkinElmer (ProxiPlate_-384 Plus, Catalog no. 6008280).
The TR-FRET signal was measured in the presence both of the bio-H3K4me3 peptide and FLAG-JARID1B by detecting any H3K4me2/1 peptide produced in the assay system. Assays using only the bio-H3K4me2 peptide were served as a positive control. Robust enzymatic progressions were observed by using JARID1B at concentrations ranging from 10 to 30 nM. In a typical TR-FRET experiment, JARID1B was pre-incubated with or without 0.1 uM of test-compounds (containing 1% DMSO final) for 5 min. The enzymatic reactions were initiated by the addition of 500 nM biotinylated H3K4me3 peptide substrate plus 500 uM of 2-OG 25 uM Fe(II) and 2 mM ascorbate. The reaction buffer also contained 50 mM Hepes (pH7.5), 0.01% (v/v) Tween 20, and 50 mM NaCl. The reaction mixture was incubated for 30 min at room temperature before reading on an EnVision plate reader (PerkinElmer, Waltham, Mass.).

T1 sequence (Q9UGL1 whole entry): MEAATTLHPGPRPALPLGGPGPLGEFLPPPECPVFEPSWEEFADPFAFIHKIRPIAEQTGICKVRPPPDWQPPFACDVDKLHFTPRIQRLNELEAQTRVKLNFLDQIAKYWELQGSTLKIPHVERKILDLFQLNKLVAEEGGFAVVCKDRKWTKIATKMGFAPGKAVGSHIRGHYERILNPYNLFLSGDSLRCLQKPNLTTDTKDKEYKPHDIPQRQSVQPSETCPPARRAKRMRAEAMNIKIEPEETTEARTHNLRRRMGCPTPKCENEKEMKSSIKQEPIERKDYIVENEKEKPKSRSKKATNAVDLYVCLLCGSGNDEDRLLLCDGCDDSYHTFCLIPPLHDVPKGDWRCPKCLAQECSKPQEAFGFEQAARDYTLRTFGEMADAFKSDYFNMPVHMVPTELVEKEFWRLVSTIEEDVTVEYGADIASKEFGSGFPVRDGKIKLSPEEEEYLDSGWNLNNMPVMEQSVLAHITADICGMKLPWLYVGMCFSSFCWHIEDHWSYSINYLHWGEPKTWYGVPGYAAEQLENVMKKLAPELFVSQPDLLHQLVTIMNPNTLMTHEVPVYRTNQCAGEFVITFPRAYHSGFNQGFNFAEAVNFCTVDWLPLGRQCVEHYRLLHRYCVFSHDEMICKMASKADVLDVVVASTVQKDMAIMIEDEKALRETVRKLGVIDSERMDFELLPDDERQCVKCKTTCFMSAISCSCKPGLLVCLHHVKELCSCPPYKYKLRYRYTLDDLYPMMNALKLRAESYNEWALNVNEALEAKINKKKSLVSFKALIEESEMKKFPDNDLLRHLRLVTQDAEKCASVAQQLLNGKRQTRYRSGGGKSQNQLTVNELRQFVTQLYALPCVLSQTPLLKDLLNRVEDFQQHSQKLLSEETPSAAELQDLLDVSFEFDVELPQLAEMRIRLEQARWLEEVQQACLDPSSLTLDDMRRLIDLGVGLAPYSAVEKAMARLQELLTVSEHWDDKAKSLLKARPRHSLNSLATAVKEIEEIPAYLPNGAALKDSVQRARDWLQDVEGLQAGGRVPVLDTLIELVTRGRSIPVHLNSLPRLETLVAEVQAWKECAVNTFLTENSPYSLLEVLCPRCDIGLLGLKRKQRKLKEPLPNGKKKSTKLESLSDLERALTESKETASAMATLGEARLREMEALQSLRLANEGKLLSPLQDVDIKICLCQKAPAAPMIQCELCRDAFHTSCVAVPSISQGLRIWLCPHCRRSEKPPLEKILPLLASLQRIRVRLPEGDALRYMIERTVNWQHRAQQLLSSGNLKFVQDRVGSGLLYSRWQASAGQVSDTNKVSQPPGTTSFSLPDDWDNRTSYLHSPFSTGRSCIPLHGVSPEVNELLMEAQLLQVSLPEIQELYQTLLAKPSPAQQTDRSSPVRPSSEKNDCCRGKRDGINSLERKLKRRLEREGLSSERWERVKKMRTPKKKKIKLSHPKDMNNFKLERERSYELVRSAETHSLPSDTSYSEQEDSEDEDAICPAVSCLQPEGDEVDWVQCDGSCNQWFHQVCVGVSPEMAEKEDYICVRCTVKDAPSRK

| Structure (SMILES) | inhibition at 0.1 µM [%] |
| --- | --- |
| O=c1[nH]c(COc2ccc(F)c(Cl)c2)nc2c(-c3csc(NC4CCN(Cc5ccccc5)C4)n3)nccc12 (stereo not shown) [Compound 107, 8-(2-((1-benzylpyrrolidin-3-yl)amino)thiazol-4-yl)-2-((3-chloro-4-fluorophenoxy)methyl) pyrido[3,4-d]pyrimidin-4(3H)-one] | 20 to 50 |
| O=c1[nH]cnc2c(-n3cc(-c4cccc(CO)c4)cn3)nccc12 [Compound 3, 8-(4-(3-(hydroxymethyl)phenyl)-1H-pyrazol-1-yl)pyrido[3,4-d]pyrimidin-4(3H)-one] | < 20 |
| CN1CCCC1CCNc1nc(-c2nccc3c(=O)[nH]cnc23)cs1 (stereo not shown) [Compound 48, 8-(2-((2-(1-methylpyrrolidin-2-yl)ethyl)amino)thiazol-4-yl)pyrido[3,4-d]pyrimidin-4(3H)-one] | 20 to 50 |
| O=c1[nH]cnc2c(-c3csc(NCC4CCN(Cc5ccccc5)CC4)n3)nccc12 [Compound 52, 8-(2-(((1-benzylpiperidin-4-yl)methyl)amino)thiazol-4-yl)pyrido[3,4-d]pyrimidin-4(3H)-one] | ≥ 50 |
| O=c1[nH]cnc2c(-n3cc(-c4cnn(Cc5ccccc5)c4)cn3)nccc12 [Compound 13, 8-(1′-benzyl-1H,1′H-[4,4′-bipyrazol]-1-yl)pyrido[3,4-d]pyrimidin-4(3H)-one] | < 20 |
| O=c1[nH]c(COc2ccc(F)cc2)nc2c(-c3csc(NCCO)n3)nccc12 [Compound 125, 2-((4-fluorophenoxy)methyl)-8-(2-((2-hydroxyethyl)amino)thiazol-4-yl)pyrido[3,4-d]pyrimidin-4(3H)-one] | ≥ 50 |
| Cn1cnc(-c2nccc3c(=O)[nH]c(COc4ccc(F)c(Cl)c4)nc23)c1 [Compound 77, 2-((3-chloro-4-fluorophenoxy)methyl)-8-(1-methyl-1H-imidazol-4-yl)pyrido[3,4-d]pyrimidin-4(3H)-one] | 20 to 50 |
| Nc1nn(-c2nccc3c(=O)[nH]cnc23)cc1-c1cccnc1 [Compound 16, 8-(3-amino-4-(pyridin-3-yl)-1H-pyrazol-1-yl)pyrido[3,4-d]pyrimidin-4(3H)-one] | < 20 |
| C[C@@H](O)CNc1nc(-c2nccc3c(=O)[nH]cnc23)cs1 [Compound 40, (R)-8-(2-((2-hydroxypropyl)amino)thiazol-4-yl)pyrido[3,4-d]pyrimidin-4(3H)-one] | ≥ 50 |
| O=c1[nH]c(COc2ccc(F)c(Cl)c2)nc2c(-c3cccc(N4CCOCC4)n3)nccc12 [Compound 116, 2-((3-chloro-4-fluorophenoxy)methyl)-8-(6-morpholinopyridin-2-yl)pyrido[3,4-d]pyrimidin-4(3H)-one] | < 20 |
| CC(C)N1CCC(CNc2nc(-c3nccc4c(=O)[nH]c(COc5ccc(F)c(Cl)c5)nc34)cs2)CC1 [Compound 97, 2-((3-chloro-4-fluorophenoxy)methyl)-8-(2-(((1-isopropylpiperidin-4-yl)methyl)amino)thiazol-4-yl)pyrido[3,4-d]pyrimidin-4(3H)-one] | 20 to 50 |
| CC1CCN(c2cccc(-c3nccc4c(=O)[nH]c(COc5ccc(F)c(Cl)c5)nc34)n2)CC1 [Compound 115, 2-((3-chloro-4-fluorophenoxy)methyl)-8-(6-(4-methylpiperidin-1-yl)pyridin-2-yl)pyrido[3,4-d]pyrimidin-4(3H)-one] | < 20 |

Now from value to molecule:

| inhibition at 0.1 µM [%] | Structure (SMILES) |
| --- | --- |
| ≥ 50 | O=c1[nH]c(COc2ccc(F)c(Cl)c2)nc2c(-c3csc(NCCO)n3)nccc12 [Compound 81, 2-((3-chloro-4-fluorophenoxy)methyl)-8-(2-((2-hydroxyethyl)amino)thiazol-4-yl)pyrido[3,4-d]pyrimidin-4(3H)-one] |
| < 20 | O=c1[nH]c(COc2ccc(F)c(Cl)c2)nc2c(-c3csc(NCC4CCN(Cc5ccccc5)CC4)n3)nccc12 [Compound 96, 8-(2-(((1-benzylpiperidin-4-yl)methyl)amino)thiazol-4-yl)-2-((3-chloro-4-fluorophenoxy)methyl) pyrido[3,4-d]pyrimidin-4(3H)-one] |
| 20 to 50 | COCCN1CCC(CNc2nc(-c3nccc4c(=O)[nH]c(COc5ccc(F)c(Cl)c5)nc34)cs2)CC1 [Compound 101, 2-((3-chloro-4-fluorophenoxy)methyl)-8-(2-(((1-(2-methoxyethyl)piperidin-4-yl)methyl)amino)thiazol-4-yl)pyrido[3,4-d]pyrimidin-4(3H)-one] |
| 20 to 50 | O=c1[nH]c(COc2ccc(F)c(Cl)c2)nc2c(-c3csc(NCC4CCN(C5CCCC5)CC4)n3)nccc12 [Compound 98, 2-((3-chloro-4-fluorophenoxy)methyl)-8-(2-(((1-cyclopentylpiperidin-4-yl)methyl)amino)thiazol-4-yl)pyrido[3,4-d]pyrimidin-4(3H)-one] |
| < 20 | CCOC(=O)c1nc(-c2nccc3c(=O)[nH]c(COc4ccc(F)c(Cl)c4)nc23)cs1 [Compound 122, ethyl 4-(2-((3-chloro-4-fluorophenoxy)methyl)-4-oxo-3,4-dihydropyrido[3,4-d]pyrimidin-8-yl)thiazole-2-carboxylate] |
| < 20 | O=c1[nH]c(COc2ccc(Oc3ccccc3)cc2)nc2c(-c3csc(NCCO)n3)nccc12 [Compound 157, 8-(2-((2-hydroxyethyl)amino)thiazol-4-yl)-2-((4-phenoxyphenoxy)methyl) pyrido[3,4-d]pyrimidin-4(3H)-one] |
| 20 to 50 | CCC(O)CNc1nc(-c2nccc3c(=O)[nH]c(COCc4ccccc4)nc23)cs1 (stereo not shown) [Compound 143, 2-((benzyloxy)methyl)-8-(2-((2-hydroxybutyl)amino)thiazol-4-yl)pyrido[3,4-d]pyrimidin-4(3H)-one] |
| 20 to 50 | Nc1nn(-c2nccc3c(=O)[nH]cnc23)cc1-c1cccc(CO)c1 [Compound 36, 8-(3-amino-4-(3-(hydroxymethyl)phenyl)-1H-pyrazol-1-yl)pyrido[3,4-d]pyrimidin-4(3H)-one] |
| ≥ 50 | Nc1nn(-c2nccc3c(=O)[nH]cnc23)cc1-c1cccc(N2CCNCC2)c1 [Compound 20, 8-(3-amino-4-(3-(piperazin-1-yl)phenyl)-1H-pyrazol-1-yl)pyrido[3,4-d]pyrimidin-4(3H)-one] |
| < 20 | O=c1[nH]cnc2c(-n3cc(-c4ccccc4CO)cn3)nccc12 [Compound 9, 8-(4-(2-(hydroxymethyl)phenyl)-1H-pyrazol-1-yl)pyrido[3,4-d]pyrimidin-4(3H)-one] |
| < 20 | O=c1[nH]cnc2c(-n3cc(-c4cccnc4)cn3)nccc12 [Compound 12, 8-(4-(pyridin-3-yl)-1H-pyrazol-1-yl)pyrido[3,4-d]pyrimidin-4(3H)-one] |
| 20 to 50 | O=c1[nH]cnc2c(-c3cnn(CCN4CCOCC4)c3)nccc12 [Compound 65, 8-(1-(2-morpholinoethyl)-1H-pyrazol-4-yl)pyrido[3,4-d]pyrimidin-4(3H)-one] |
| < 20 | CN1CCN(Cc2ccc(-c3cnn(-c4nccc5c(=O)[nH]cnc45)c3)cc2)CC1 [Compound 2, 8-(4-(4-((4-methylpiperazin-1-yl)methyl)phenyl)-1H-pyrazol-1-yl)pyrido[3,4-d]pyrimidin-4(3H)-one] |
| < 20 | Nc1ccn(-c2nccc3c(=O)[nH]c(COc4ccc(Cc5ccccc5)cc4)nc23)n1 [Compound 69, 8-(3-amino-1H-pyrazol-1-yl)-2-((4-benzylphenoxy)methyl) pyrido[3,4-d]pyrimidin-4(3H)-one] |
| ≥ 50 | CN1CCC(Nc2nc(-c3nccc4c(=O)[nH]c(COc5ccc(F)c(Cl)c5)nc34)cs2)CC1 [Compound 94, 2-((3-chloro-4-fluorophenoxy)methyl)-8-(2-((1-methylpiperidin-4-yl)amino)thiazol-4-yl)pyrido[3,4-d]pyrimidin-4(3H)-one] |
| < 20 | Cc1ccc(CCNc2nc(-c3nccc4c(=O)[nH]c(COc5ccc(F)c(Cl)c5)nc34)cs2)cc1C [Compound 112, 2-((3-chloro-4-fluorophenoxy)methyl)-8-(2-((3,4-dimethylphenethyl)amino)thiazol-4-yl)pyrido[3,4-d]pyrimidin-4(3H)-one] |
